# Measured values taken from US9156828B2, “Tricyclic amidine derivatives as HIV attachment inhibitors” (priority 2012, dated 2015).
# Where two headings read alike, the source gives them in different places.
# Test system: HIV-1 LAI envelope single-round infectious reporter virus
# Test: Single-round infectious HIV-1 LAI luciferase reporter virus infection of MT2 cells
# Assay type: cell-based
# Conditions: Human immunodeficiency virus 1, MT2, 72 h
# Text: Virus Production— • Human embryonic Kidney cell line, 293T (HEK 293T), was propagated in Dulbecco's Modified Eagle Medium (Invitrogen, Carlsbad, Calif.) containing 10% fetal bovine serum (FBS, Sigma, St. Louis, Mo.). The human T-cell leukemia cell MT2 (AIDS Research and Reference Reagent Program, Cat. 237) was propagated in RPMI 1640 (Invitrogen, Carlsbad, Calif.) containing 10% fetal bovine serum (FBS, Hyclone, Logan, Utah)
# Virus Infection— • Single-round infectious reporter virus was produced by co-transfecting HEK 293T cells with plasmide expressing the HIV-1 LAI envelope along with a plasmid containing an HIV-1 LAI proviral cDNA with the envelope gene replaced by a firefly luciferase reporter gene (Chen et al., Ref 41). Transfections were performed using lipofectAMINE PLUS reagent as described by the manufacturer (Invitrogen, Carlsbad, Calif.). Experimental Procedure • 1. MT2 cells were plated in black, 384 well plates at a cell density of 5×10^3 cells per well in […] RPMI 1640 containing 10% FBS. • 2. Compound (diluted in dimethylsulfoxide and growth medium) was added to cells at 12.5 μl/well, so that the final assay concentration would be […]. • 3. 12.5 μl of single-round infectious reporter virus in Dulbecco's Modified Eagle Medium was added to the plated cells and compound at an approximate multiplicity of infection (MOI) of 0.01, resulting in a final volume of 50 μl per well. • 4. Virus-infected cells were incubated at 37 degrees Celsius in a CO2 incubator and harvested 72 h after infection. • 5. Viral infection was monitored by measuring luciferase expression in the infected cells using a luciferase reporter gene assay kit (Steady-Glo, Promega, Madison, Wis.) as described by the manufacturer. Luciferase activity was then quantified by measuring luminescence using an EnVision Multilabel Plate Readers (PerkinElmer, Waltham, Mass.). • 6. The percent inhibition for each compound was calculated by quantifying the level of luciferase expression in cells infected in the presence of each compound as a percentage of that observed for cells infected in the absence of compound and subtracting such a determined value from 100. • 7. An EC50 provides a method for comparing the antiviral potency of the compounds herein. The effective concentration for fifty percent inhibition (EC50) was calculated with the Microsoft Excel Xlfit curve fitting software. For each compound, curves were generated from percent inhibition calculated at 10 different concentrations by using a four parameter logistic model (model 205). Table 1 is the key for the data in Table 2.
# [1] = read-out: EC50 Group from Table 1
SMILES,EC50 [nM],EC50 [1] [nM]
O=C(C(=O)N1CCN(C2=Nc3ccccc3Oc3ccc(Cl)cc32)CC1)c1c[nH]c2ccccc12 [Compound 1001],706,> 500
O=C(C(=O)N1CCN(C2=Nc3cc(Cl)ccc3Nc3ccccc32)CC1)c1c[nH]c2ccccc12 [Compound 1002],,> 500
COc1cnc(-n2cncn2)c2[nH]cc(C(=O)C(=O)N3CCN(C4=Nc5ccccc5Oc5ccc(Cl)cc54)CC3)c12 [Compound 1003],,< 500
O=C(C(=O)N1CCN(C2=Nc3ccccc3Oc3ccc(Cl)cc32)CC1)c1c[nH]c2c(Br)ccc(F)c12 [Compound 1004],,> 500
COc1cnc(-n2cnc(C)n2)c2[nH]cc(C(=O)C(=O)N3CCN(C4=Nc5ccccc5Oc5ccc(Cl)cc54)CC3)c12 [Compound 1005],1.83,< 500
COc1cnc(-n2cnc(C)n2)c2[nH]cc(C(=O)C(=O)N3CCN(C4=Nc5cc(Cl)ccc5Nc5ccccc54)CC3)c12 [Compound 1006],,< 500
